Experiments:
[1] = tested on: rabbit serum obtained by immunizing a rabbit with the SARS-CoV strain Frankfurt 1; format: binding; parameters: Binding of a rabbit serum to linear peptides / Binding of a rabbit serum to looped peptides / Rabbit serum linear peptides / Rabbit serum looped peptides / Binding of a rabbit serum to linear peptides of protein N of SARS-CoV Urbani (Rabbit serum linear peptides) / Binding of a rabbit serum to looped/cyclic peptides of protein N of SARS-CoV Urbani (Rabbit serum looped peptides): unit not given here
[2] = tested on: recombinant human anti-SARS-CoV antibody 03-018; format: binding; parameters: Binding of antibody 03-018 to linear peptides of the N protein of SARS-CoV Urbani / Binding of antibody 03-018 to looped/cyclic peptides of the N protein of SARS-CoV Urbani: unit not given here
[3] = tested on: control sera (pooled serum of ten healthy LUMC hospital workers; commercial negative donor pooled serum from the Dutch bloodbank); format: binding, human; parameters: Binding of Control serum LUMC to linear peptides / Binding of Control serum Blood-bank to linear peptides / Binding of Control serum LUMC to looped peptides / Binding of Control Serum Blood-Bank to Looped peptides / Binding of Control serum LUMC to linear peptides of the protein M of SARS-CoV Urbani / Binding of Control serum Blood-bank to linear peptides of the protein M of SARS-CoV Urbani / Binding of Control serum LUMC to looped peptides of the protein M of SARS-CoV Urbani / Binding of Control Serum Blood-Bank to Looped peptides of the protein M of SARS-CoV Urbani: unit not given here
[4] = tested on: antibodies in sera from SARS patients (sera 1a, 1b, 2, 6, 37, 62, London, SARS-yellow, SARS-green); format: binding, human; parameters: Binding of serum 6 to linear peptides of protein X1 of SARS-CoV Urbani / Binding of serum 37 to linear peptides of protein X1 of SARS-CoV Urbani / Binding of serum 6 to looped/cyclic peptide (PEPSCAN-ELISA) / Binding of serum 37 to looped/cyclic peptide (PEPSCAN-ELISA) / Binding of serum 37 to looped/cyclic peptides of protein X1 of SARS-CoV Urbani / Binding of serum 6 to linear peptides of protein X2 / Binding of serum 37 to linear peptides of protein X2 / Binding of serum 37 to looped/cyclic peptides of protein X2 of SARS-CoV Urbani / Binding of serum 6 to linear peptides of protein M of SARS-CoV Urbani / Binding of serum 37 to linear peptides of protein M of SARS-CoV Urbani / Binding of serum 6 to looped/cyclic peptides of protein M of SARS-CoV Urbani / Binding of serum 37 to looped/cyclic peptides of protein M of SARS-CoV Urbani / Binding of serum 6 to linear peptides of protein X3 of SARS-CoV Urbani / Binding of serum 37 to linear peptides of protein X3 of SARS-CoV Urbani / Binding of serum 37 to looped/cyclic peptides of protein X3 of SARS-CoV Urbani / Binding of serum 6 to linear peptides of protein X4 of SARS-CoV Urbani / Binding of serum 37 to linear peptides of protein X4 of SARS-CoV Urbani / Binding of serum 37 to looped/cyclic peptides of protein X4 of SARS-CoV Urbani / Binding of serum 6 to linear peptides of protein X5 of SARS-CoV Urbani / Binding of serum 37 to linear peptides of protein X5 of SARS-CoV Urbani / Binding of serum 37 to looped/cyclic peptides of protein X5 of SARS-CoV Urbani / Binding of serum 6 to linear peptides of protein N of SARS-CoV Urbani / Binding of serum 37 to linear peptides of protein N of SARS-CoV Urbani / Binding of serum 6 to linear peptide (PEPSCAN-ELISA) / Binding of serum 1a to looped/cyclic peptides of protein N of SARS-CoV Urbani / Binding of serum 1b to looped/cyclic peptides of protein N of SARS-CoV Urbani / Binding of serum 2 to looped/cyclic peptides of protein N of SARS-CoV Urbani / Binding of serum 6 to looped/cyclic peptides of protein N of SARS-CoV Urbani / Binding of serum 37 to looped/cyclic peptides of protein N of SARS-CoV Urbani / Binding of serum 62 to looped/cyclic peptides of protein N of SARS-CoV Urbani / Binding of serum London to looped/cyclic peptides of protein N of SARS-CoV Urbani / Binding of serum SARS-green to looped/cyclic peptides of protein N of SARS-CoV Urbani: unit not given here

Row | Sequence | Binding of a rabbit serum to linear peptides of protein N of SARS-CoV Urbani (Rabbit serum linear peptides) [1] | Binding of a rabbit serum to looped/cyclic peptides of protein N of SARS-CoV Urbani (Rabbit serum looped peptides) [1] | Binding of antibody 03-018 to linear peptides of the N protein of SARS-CoV Urbani [2] | Binding of antibody 03-018 to looped/cyclic peptides of the N protein of SARS-CoV Urbani [2] | Binding of Control Serum Blood-Bank to Looped peptides [3] | Binding of Control serum Blood-bank to linear peptides [3] | Binding of Control serum LUMC to linear peptides [3] | Binding of Control serum LUMC to looped peptides [3] | Binding of serum 1a to linear peptides of protein N of SARS-CoV Urbani [4] | Binding of serum 1a to looped/cyclic peptides of protein N of SARS-CoV Urbani [4] | Binding of serum 1b to linear peptides of protein N of SARS-CoV Urbani [4] | Binding of serum 1b to looped/cyclic peptides of protein N of SARS-CoV Urbani [4] | Binding of serum 2 to linear peptides of protein N of SARS-CoV Urbani [4] | Binding of serum 2 to looped/cyclic peptides of protein N of SARS-CoV Urbani [4] | Binding of serum 6 to looped/cyclic peptides of protein N of SARS-CoV Urbani [4] | Binding of serum 37 to looped/cyclic peptides of protein N of SARS-CoV Urbani [4] | Binding of serum 62 to looped/cyclic peptides of protein N of SARS-CoV Urbani [4] | Binding of serum London to looped/cyclic peptides of protein N of SARS-CoV Urbani [4] | Binding of serum SARS-green to looped/cyclic peptides of protein N of SARS-CoV Urbani [4] | Binding of serum SARS-yellow to looped/cyclic peptides of protein N of SARS-CoV Urbani [4] | also measured
1 | TGPEASLPYGANKEG | 0.1 | 0.5 | 0.1 | 0.2 | 0.8 | 0.9 | 1.1 | 0.6 | 0.3 | 0.3 | 0.2 | 0.2 | 0.3 | 0.5 | 0.4 | 0.6 | 0.5 | 0.6 | 0.7 | 0.4 | Binding of serum 6 to linear peptides of protein N of SARS-CoV Urbani [4]: 0.3; Binding of serum 37 to linear peptides of protein N of SARS-CoV Urbani [4]: 0.7; Binding of serum 62 to linear peptides of protein N of SARS-CoV Urbani [4]: 0.9; Binding of serum London to linear peptides of protein N of SARS-CoV Urbani [4]: 0.7; Binding of serum SARS-green to linear peptides of protein N of SARS-CoV Urbani [4]: 0.8; Binding of serum SARS-yellow to linear peptides of protein N of SARS-CoV Urbani [4]: 0.6
2 | TKQYNVTQAFGRRGP |  |  | 0.1 | 0.3 | 0.9 | 0.8 | 0.8 | 0.9 |  | 0.4 |  | 0.2 |  | 0.5 | 0.3 | 0.7 | 0.7 | 0.5 | 0.4 | 0.6 | Recognition of the peptide by the rabbit serum [1]: recognized; Binding of serum 1a to linear peptide (PEPSCAN-ELISA) [4]: 0.3; Binding of serum 1b to linear peptide (PEPSCAN-ELISA) [4]: 0.1; Binding of serum 2 to linear peptide (PEPSCAN-ELISA) [4]: 0.2; Binding of serum 6 to linear peptide (PEPSCAN-ELISA) [4]: 0.2; Binding of serum 37 to linear peptide (PEPSCAN-ELISA) [4]: 0.8; Binding of serum 62 to linear peptide (PEPSCAN-ELISA) [4]: 0.7; Binding of serum London to linear peptide (PEPSCAN-ELISA) [4]: 0.5; Binding of serum SARS-green to linear peptide (PEPSCAN-ELISA) [4]: 0.5; Binding of serum SARS-yellow to linear peptide (PEPSCAN-ELISA) [4]: 0.7
3 | TLLPAADMDDFSRQL | 0.1 | 0.0 | 0.1 | 0.1 |  |  |  |  | 0.3 | 0.4 | 0.2 | 0.2 | 0.2 | 0.5 | 0.1 | 0.4 | 0.1 | 0.2 | 0.0 | 0.4 | Control Serum Blood-Bank Looped peptides [3]: 0.5; Control serum Blood-bank linear peptides [3]: 0.7; Control serum LUMC linear peptides [3]: 0.8; Control serum LUMC looped peptides [3]: 0.4; Binding of serum 6 to linear peptides of protein N of SARS-CoV Urbani [4]: 0.4; Binding of serum 37 to linear peptides of protein N of SARS-CoV Urbani [4]: 1.0; Binding of serum 62 to linear peptides of protein N of SARS-CoV Urbani [4]: 0.7; Binding of serum London to linear peptides of protein N of SARS-CoV Urbani [4]: 0.6; Binding of serum SARS-green to linear peptides of protein N of SARS-CoV Urbani [4]: 0.7; Binding of serum SARS-yellow to linear peptides of protein N of SARS-CoV Urbani [4]: 0.7
4 | TQAFGRRGPEQTQGN |  |  | 0.1 | 0.2 | 0.7 | 0.8 | 0.7 | 0.6 |  | 0.3 |  | 0.2 |  | 0.4 | 0.3 | 0.5 | 0.5 | 0.4 | 0.3 | 0.2 | Recognition of the peptide by the rabbit serum [1]: recognized; Binding of serum 1a to linear peptide (PEPSCAN-ELISA) [4]: 0.2; Binding of serum 1b to linear peptide (PEPSCAN-ELISA) [4]: 0.1; Binding of serum 2 to linear peptide (PEPSCAN-ELISA) [4]: 0.2; Binding of serum 6 to linear peptide (PEPSCAN-ELISA) [4]: 0.2; Binding of serum 37 to linear peptide (PEPSCAN-ELISA) [4]: 0.6; Binding of serum 62 to linear peptide (PEPSCAN-ELISA) [4]: 0.5; Binding of serum London to linear peptide (PEPSCAN-ELISA) [4]: 0.5; Binding of serum SARS-green to linear peptide (PEPSCAN-ELISA) [4]: 0.3; Binding of serum SARS-yellow to linear peptide (PEPSCAN-ELISA) [4]: 0.5

From patent US20070128217A1 (priority 2003, published 2007)
